Values quoted from earlier work as cited in patent US20220047514A1, “SOLID ORAL PHARMACEUTICAL COMPOSITIONS FOR CHRONOTROPIC ADMINISTRATION OF DIPEPTIDYL PEPTIDASE IV INHIBITORS” (priority 2018, published 2022).

Columns and labels:
[1] = target: DPP-9 (Homo sapiens, UniProt Q86TI2); conditions: at therapeutic concentrations
[2] = target: DPP-8 (Homo sapiens, UniProt Q6V1X1); conditions: at therapeutic concentrations
Chain of DPP-8 (Q6V1X1 whole entry): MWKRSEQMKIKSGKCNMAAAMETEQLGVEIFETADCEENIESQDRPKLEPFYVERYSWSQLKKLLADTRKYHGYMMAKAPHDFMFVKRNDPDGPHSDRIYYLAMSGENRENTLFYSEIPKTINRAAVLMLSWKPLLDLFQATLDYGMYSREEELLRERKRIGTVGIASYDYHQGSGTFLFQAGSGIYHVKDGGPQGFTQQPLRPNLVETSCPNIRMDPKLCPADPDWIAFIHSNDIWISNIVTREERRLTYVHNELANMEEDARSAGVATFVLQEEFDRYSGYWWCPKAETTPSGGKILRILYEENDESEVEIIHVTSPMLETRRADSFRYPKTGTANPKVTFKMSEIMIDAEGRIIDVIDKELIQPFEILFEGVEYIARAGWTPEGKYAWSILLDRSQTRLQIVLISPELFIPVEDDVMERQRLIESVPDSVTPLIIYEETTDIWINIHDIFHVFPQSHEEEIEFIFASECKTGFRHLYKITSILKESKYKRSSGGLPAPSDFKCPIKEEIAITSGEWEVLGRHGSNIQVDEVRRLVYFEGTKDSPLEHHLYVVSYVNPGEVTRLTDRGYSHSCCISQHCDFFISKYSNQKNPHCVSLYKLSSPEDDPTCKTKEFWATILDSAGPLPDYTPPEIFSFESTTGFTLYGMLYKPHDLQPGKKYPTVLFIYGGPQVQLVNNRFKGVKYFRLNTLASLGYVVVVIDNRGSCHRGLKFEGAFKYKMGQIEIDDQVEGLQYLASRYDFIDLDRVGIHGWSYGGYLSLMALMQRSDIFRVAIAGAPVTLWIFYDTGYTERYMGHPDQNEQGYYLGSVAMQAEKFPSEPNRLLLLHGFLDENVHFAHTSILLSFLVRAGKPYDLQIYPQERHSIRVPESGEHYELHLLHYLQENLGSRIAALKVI

Chain of DPP-9 (Q86TI2 whole entry): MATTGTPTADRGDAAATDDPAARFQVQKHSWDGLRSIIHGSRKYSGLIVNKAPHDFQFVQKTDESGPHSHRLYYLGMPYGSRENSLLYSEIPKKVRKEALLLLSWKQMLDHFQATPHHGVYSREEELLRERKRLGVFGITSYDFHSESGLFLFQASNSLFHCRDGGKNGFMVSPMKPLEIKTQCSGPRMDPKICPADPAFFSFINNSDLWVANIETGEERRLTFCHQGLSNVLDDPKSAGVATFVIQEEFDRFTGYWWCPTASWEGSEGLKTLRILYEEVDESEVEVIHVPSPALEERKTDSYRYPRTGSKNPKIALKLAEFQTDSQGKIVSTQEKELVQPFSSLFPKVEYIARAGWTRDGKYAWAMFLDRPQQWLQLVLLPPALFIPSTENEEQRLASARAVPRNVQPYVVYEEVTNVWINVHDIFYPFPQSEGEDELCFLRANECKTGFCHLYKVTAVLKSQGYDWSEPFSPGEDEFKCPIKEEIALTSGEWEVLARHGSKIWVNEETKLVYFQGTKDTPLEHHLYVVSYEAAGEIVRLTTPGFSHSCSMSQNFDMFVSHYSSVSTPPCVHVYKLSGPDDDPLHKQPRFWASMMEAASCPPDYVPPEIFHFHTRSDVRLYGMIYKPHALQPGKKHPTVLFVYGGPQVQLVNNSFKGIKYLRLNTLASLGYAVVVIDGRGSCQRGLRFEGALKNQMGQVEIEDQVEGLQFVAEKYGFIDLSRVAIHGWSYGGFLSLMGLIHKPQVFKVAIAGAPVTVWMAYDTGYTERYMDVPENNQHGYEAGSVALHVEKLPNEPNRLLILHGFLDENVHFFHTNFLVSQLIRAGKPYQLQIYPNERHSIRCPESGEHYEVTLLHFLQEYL

inhibition of the activity of DPP-9 [1]: does not inhibit
inhibition of the activity of DPP-8 [2]: does not inhibit
Structure (SMILES): N[C@@H](CC(=O)N1CCn2c(nnc2C(F)(F)F)C1)Cc1cc(F)c(F)cc1F [Sitagliptin, sitagliptin]
